# US5981558A, “DC107 derivatives” (Kyowa Hakko Kogyo Co., Ltd., priority 1996, dated 1999)
# Like-named read-outs stand apart in the source and are kept apart here.
# Columns and labels:
# [1] = system: Sarcoma 180 mouse solid tumor; assay: Antitumor activity against Sarcoma 180 mouse solid tumor; assay type: in vivo, mouse (ddY); details: Sarcoma-180, iv, 168 h
# Protocol: To a ddY mouse were intraperitoneally transplanted 5×10^6 sarcoma 180 cells. On the seventh day from the transplant, the cells were collected from the ascites, washed once with sterilized physiological saline, and then diluted with sterilized physiological saline to prepare a cell suspension having a concentration of 5×10^7 cells/mL. This suspension was transplanted in an amount of 0.01 mL to a subcutaneous part of the right axilla of each of male ddY mice each weighing 20±1 g.
# A test compound was dissolved in physiological saline containing polyoxyethylene sorbitan monolaurate. At 24 hours after the tumor transplant, 0.2 mL of the solution was intravenously administered to the tail of each of a group of five mice.
# [2] = system: EH: Enterococcus hirae ATCC 10541; assay: Antimicrobial activity by the agar dilution method (MIC); assay type: cell-based; details: pH 7
# Protocol: (§1) Antimicrobial activity was determined by the agar dilution method using a culture medium (pH 7) prepared by dissolving 3 g of Bacto-Tryptone (manufactured by Difco, Co.), 3 g of meat extract, 1 g of yeast extract, 1 g of glucose, and 16 g of agar in 1 l of water.
# [3] = system: BS: Bacillus substilis No. 10707; assay: as above; assay type: cell-based
# Protocol: as §1
# [4] = system: SA: Staphylococcus aureus ATCC 6538P; assay: as above; assay type: cell-based; details: ATCC6538P
# Protocol: as §1
# [5] = system: KP: Klebisiella pneumoniae ATCC 10031; assay: as above; assay type: cell-based
# Protocol: as §1
# HeLa S3 cells = assay: HeLa S3 Cell Growth Inhibition Test; assay type: cell-based; details: Homo sapiens, 72 hours incubation, Neutral Red
# How it was run: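 HeLa S3 cells seeded overnight in MEM with 10% FBS, then exposed to compound for 72 h at 37 °C. Viable cells stained with Neutral Red, dye extracted, absorbance read at 550 nm; IC50 derived against untreated cells.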
# [6] = read-out: T/C (tumor volume ratio treated/control)
# [7] = Bacillus, pH 7, read-out: minimum inhibitory concentration (MIC), BS
# [8] = Staphylococcus aureus, pH 7, read-out: minimum inhibitory concentration (MIC), SA
# [9] = pH 7, read-out: minimum inhibitory concentration (MIC), KP
# [10] = HeLa S3, 72 h, read-out: IC50, HeLa S3 cell growth inhibition, HeLa S3
# [11] = 16 mg/kg i.v. once, 24 hours after transplant, tumor volume on day 7, read-out: T/C (tumor volume ratio treated/control)
# [12] = HeLa S3, read-out: IC50, HeLa S3 cell growth inhibition
# [13] = Staphylococcus aureus ATCC 6538P, agar dilution, pH 7, read-out: minimum inhibitory concentration (MIC), SA
# [14] = Klebisiella pneumoniae ATCC 10031, agar dilution, pH 7, read-out: minimum inhibitory concentration (MIC), KP
# [15] = HeLa S3, 72 h, HeLa S3, read-out: IC50, HeLa S3 cell growth inhibition
# [16] = 8.0 mg/kg i.v. once, 24 hours after transplant, tumor volume on day 7, read-out: T/C (tumor volume ratio treated/control)
structure (smiles),measurement,setting,value
C/C1=C\C(O)C(=O)/C=C/C=C\c2csc(n2)C(C)N2C(=O)CC(C(C)(O)C(=O)SCOC(=O)CCCNC(=O)[C@@H]3CCC(=O)N3)(CC1)[S+]2[O-] (stereo partly shown) [Compound 144],response vs control in vivo at 8 mg/kg,[1]; [6],26%
same,"minimum inhibitory concentration (MIC), EH",[2],5.8 µg/mL
same,MIC,[3]; [7],12 µg/mL
same,MIC,[4]; [8],12 µg/mL
same,MIC,[5]; [9],12 µg/mL
COC(=O)[C@H](CCC(=O)OCSC(=O)C(C)(O)C12CCC(C)=CC(O)C(=O)C=CC=Cc3csc(n3)C(C)N(C(=O)C1)[S+]2[O-])NC(=O)[C@@]12O[C@H]3COC(C)(C)O[C@H]3[C@@H]1OC(C)(C)O2 (stereo partly shown) [Compound 24],response vs control in vivo at 16 mg/kg,[1]; [6],12%
same,"minimum inhibitory concentration (MIC), EH",[2],23 µg/mL
same,IC50,HeLa S3 cells; [10],550 nM
same,MIC,[3]; [7],23 µg/mL
same,MIC,[4]; [8],23 µg/mL
same,MIC,[5]; [9],46 µg/mL
C/C1=C\C(OC2CCCCO2)C(=O)/C=C/C=C\c2csc(n2)C(C)N2C(=O)CC(C(C)(O)C(=O)SCc3oc(=O)oc3COC3C[C@H](O[Si](C)(C)C(C)(C)C)[C@@H](O[Si](C)(C)C(C)(C)C)[C@H](C)O3)(CC1)[S+]2[O-] (stereo partly shown) [Compound 80],response vs control in vivo at 16 mg/kg,[1]; [11],37%
same,"minimum inhibitory concentration (MIC), EH",[2],3.4 µg/mL
same,IC50,HeLa S3 cells; [12],330 nM
same,MIC,"[3]; Bacillus substilis No. 10707, agar dilution, pH 7, read-out: minimum inhibitory concentration (MIC), BS",0.42 µg/mL
same,MIC,[4]; [13],3.4 µg/mL
same,MIC,[5]; [14],27 µg/mL
CC[Si](CC)(CC)OC[C@H]1OC(OCc2oc(=O)oc2CSC(=O)C(C)(O)C23CC/C(C)=C/C(OC4CCCCO4)C(=O)/C=C/C=C\c4csc(n4)C(C)N(C(=O)C2)[S+]3[O-])C[C@@H](O[Si](CC)(CC)CC)[C@@H]1O[Si](CC)(CC)CC (stereo partly shown) [Compound 82],response vs control in vivo at 16 mg/kg,[1]; [11],36%
same,"minimum inhibitory concentration (MIC), EH",[2],4.2 µg/mL
same,IC50,HeLa S3 cells; [12],800 nM
same,MIC,[4]; [13],2.1 µg/mL
same,MIC,[5]; [14],33 µg/mL
C/C1=C\C(O)C(=O)/C=C/C=C\c2csc(n2)C(C)N2C(=O)CC(C(C)(O)C(=O)SCOC(=O)CCCNC(=O)C(C)(CO)CO)(CC1)[S+]2[O-] (stereo not shown) [Compound 139],response vs control in vivo at 4 mg/kg,[1]; [6],33%
same,"minimum inhibitory concentration (MIC), EH",[2],12 µg/mL
same,MIC,[3]; [7],12 µg/mL
same,MIC,[4]; [8],25 µg/mL
same,MIC,[5]; [9],25 µg/mL
C/C1=C\C(OC2CCCCO2)C(=O)/C=C/C=C\c2csc(n2)C(C)N2C(=O)CC(C(C)(O)C(=O)SCc3oc(=O)oc3COC(=O)c3cnc4ccccc4n3)(CC1)[S+]2[O-] (stereo not shown) [Compound 94],response vs control in vivo at 8 mg/kg,[1]; [6],43%
same,IC50,HeLa S3 cells; [10],33 nM
CC(=O)NCC(=O)OCc1oc(=O)oc1CSC(=O)C(C)(O)C12CC/C(C)=C/C(OC3CCCCO3)C(=O)/C=C/C=C\c3csc(n3)C(C)N(C(=O)C1)[S+]2[O-] (stereo not shown) [Compound 98],response vs control in vivo at 16 mg/kg,[1]; [11],40%
same,IC50,HeLa S3 cells; [15],70 nM
CC(=O)Oc1ccc(C(=O)OCSC(=O)C(C)(O)C23CC/C(C)=C/C(OC4CCCCO4)C(=O)/C=C/C=C\c4csc(n4)C(C)N(C(=O)C2)[S+]3[O-])cc1 (stereo not shown) [Compound 53],response vs control in vivo at 8 mg/kg,[1]; [16],50%
same,IC50,HeLa S3 cells; [15],35 nM
C/C1=C\C(O)C(=O)/C=C/C=C\c2csc(n2)C(C)N2C(=O)CC(C(C)(O)C(=O)SCc3oc(=O)oc3COC(=O)CN(C)C)(CC1)[S+]2[O-] (stereo not shown) [Compound 158],response vs control in vivo at 32 mg/kg,[1]; [6],31%
same,"minimum inhibitory concentration (MIC), EH",[2],0.33 µg/mL
same,MIC,[3]; [7],< 0.041 µg/mL
same,MIC,[4]; [8],0.33 µg/mL
same,MIC,[5]; [9],1.3 µg/mL
COC(=O)NCC(=O)OCSC(=O)C(C)(O)C12CC/C(C)=C/C(OC3CCCCO3)C(=O)/C=C/C=C\c3csc(n3)C(C)N(C(=O)C1)[S+]2[O-] (stereo not shown) [Compound 40],response vs control in vivo at 4 mg/kg,"[1]; 4.0 mg/kg i.v. once, 24 hours after transplant, tumor volume on day 7, read-out: T/C (tumor volume ratio treated/control)",36%
same,IC50,HeLa S3 cells; [15],15 nM
COCOCc1oc(=O)oc1CSC(=O)C(C)(O)C12CC/C(C)=C/C(OC3CCCCO3)C(=O)/C=C/C=C\c3csc(n3)C(C)N(C(=O)C1)[S+]2[O-] (stereo not shown) [Compound 78],response vs control in vivo at 8 mg/kg,[1]; [16],50%
same,IC50,HeLa S3 cells; [15],2.2 nM
CC1=CC(O)C(=O)C=CC=Cc2csc(n2)C(C)N2C(=O)CC(C(C)(O)C(=O)SCOC(=O)CO)(CC1)[S+]2[O-] (stereo not shown) [Compound 14],response vs control in vivo at 2 mg/kg,[1]; [6],44%
same,IC50,HeLa S3 cells; [10],380 nM
C/C1=C\C(O)C(=O)/C=C/C=C\c2csc(n2)C(C)N2C(=O)CC(C(C)(O)C(=O)SCc3oc(=O)oc3COC3C[C@H](O[Si](C)(C)C(C)(C)C)[C@@H](O[Si](C)(C)C(C)(C)C)[C@H](C)O3)(CC1)[S+]2[O-] (stereo partly shown) [Compound 79],response vs control in vivo at 8 mg/kg,[1]; [16],45%
same,IC50,HeLa S3 cells; [12],790 nM
